In US10538555B2, “Macrocyclic inhibitors of the PD-1/PD-L1 and CD80(B7-1)/PD-L1 protein/protein interactions” (BRISTOL-MYERS SQUIBB COMPANY, priority 2014, dated 2020):
Where a SMILES comes first, the peptide text is derived from it. Bridges are numbered along the chain shown (N, C = ends). [ ]: non-standard residue; d: D form. Phe(3,4,5-F3) = N[C@@H](Cc1cc(F)c(F)c(F)c1)C(=O)O; d(cisHyp) = O=C(O)[C@H]1C[C@@H](O)CN1; NMeF = CN[C@@H](Cc1ccccc1)C(=O)O; NMeNle = CCCC[C@H](NC)C(=O)O; Orn = NCCC[C@H](N)C(=O)O; Dab = NCC[C@H](N)C(=O)O; Dap = NC[C@H](N)C(=O)O

These compounds were tested against T1, Human PD-L1/PD-1 (Homo sapiens, UniProt Q9NZQ7) (assay: HTRF Human PD-L1/PD-1 binding assay (PD-1-Ig/PD-L1-His)). Details: PD-L1-His 10 nM, PD-1-Ig 20 nM; class symbol; read-out: HTRF Human PD-L1/PD-1 Binding Assay IC50 Range.
T1 construct: TVMV protease cleavage site (C); made in house; host or cells: HEK293T cells
Method in brief: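 Truncated Fc-fused human PD-1 (aa 25-167) at 20 nM and His-tagged PD-L1 (aa 18-239) at 10 nM final are used, with peptides preincubated 15 min with PD-L1. Detection uses europium-cryptate anti-Ig and APC anti-His antibodies; 665/620 nm ratio.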

T1 sequence (Q9NZQ7 with tags, fused parts or gaps): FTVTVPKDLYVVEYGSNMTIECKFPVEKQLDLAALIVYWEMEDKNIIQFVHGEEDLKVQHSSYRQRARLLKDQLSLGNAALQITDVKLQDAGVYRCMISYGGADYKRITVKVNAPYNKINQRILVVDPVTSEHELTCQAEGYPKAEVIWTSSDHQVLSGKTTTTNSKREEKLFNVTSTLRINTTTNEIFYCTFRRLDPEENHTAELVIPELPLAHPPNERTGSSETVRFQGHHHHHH

IC50 [nM] | Compound
10 to 99.9 | CCCC[C@H]1C(=O)N2C[C@H](O)C[C@@H]2C(=O)N[C@@H](CC(=O)O)C(=O)N[C@@H](C(C)C)C(=O)N(C)[C@@H](Cc2ccccc2)C(=O)N[C@@H](CCC(=O)O)C(=O)N2C[C@H](O)C[C@@H]2C(=O)N[C@@H](Cc2c[nH]c3ccccc23)C(=O)N[C@@H](Cc2ccc(O)cc2)C(=O)N[C@@H](CC(=O)O)C(=O)N[C@H](C(=O)NCC(N)=O)CSCC(=O)N[C@@H](Cc2cc(F)c(F)c(F)c2)C(=O)N(C)[C@@H](Cc2ccccc2)C(=O)N1C [Example 9336] ({CH2CO}-[Phe(3,4,5-F3)][NMeF][NMeNle][d(cisHyp)]DV[NMeF]E[d(cisHyp)]WYDCG-NH2; thioether N-13)
10 to 99.9 | CCCC[C@H]1C(=O)N2C[C@H](O)C[C@@H]2C(=O)N[C@@H](CC(=O)O)C(=O)N[C@@H](C(C)C)C(=O)N(C)[C@@H](Cc2ccccc2)C(=O)N[C@@H](CCC(=O)O)C(=O)N2C[C@H](O)C[C@@H]2C(=O)N[C@@H](Cc2c[nH]c3ccccc23)C(=O)N[C@@H](Cc2ccc(O)cc2)C(=O)N[C@@H](CCC(N)=O)C(=O)N[C@H](C(=O)NCC(N)=O)CSCC(=O)N[C@@H](Cc2cc(F)c(F)c(F)c2)C(=O)N(C)[C@@H](Cc2ccccc2)C(=O)N1C [Example 9337] ({CH2CO}-[Phe(3,4,5-F3)][NMeF][NMeNle][d(cisHyp)]DV[NMeF]E[d(cisHyp)]WYQCG-NH2; thioether N-13)
1 to 9.9 | CCCC[C@H]1C(=O)N2C[C@H](O)C[C@@H]2C(=O)N[C@@H](CC(=O)O)C(=O)N[C@@H](C(C)C)C(=O)N(C)[C@@H](Cc2ccccc2)C(=O)N[C@@H](CCC(=O)O)C(=O)N2C[C@H](O)C[C@@H]2C(=O)N[C@@H](Cc2c[nH]c3ccccc23)C(=O)N[C@@H](Cc2ccc(O)cc2)C(=O)N[C@@H](CC(N)=O)C(=O)N[C@H](C(=O)NCC(N)=O)CSCC(=O)N[C@@H](Cc2cc(F)c(F)c(F)c2)C(=O)N(C)[C@@H](Cc2ccccc2)C(=O)N1C [Example 9338] ({CH2CO}-[Phe(3,4,5-F3)][NMeF][NMeNle][d(cisHyp)]DV[NMeF]E[d(cisHyp)]WYNCG-NH2; thioether N-13)
1 to 9.9 | CCCC[C@H]1C(=O)N2C[C@H](O)C[C@@H]2C(=O)N[C@@H](CC(=O)O)C(=O)N[C@@H](C(C)C)C(=O)N(C)[C@@H](Cc2ccccc2)C(=O)N[C@@H](CC(=O)O)C(=O)N2C[C@H](O)C[C@@H]2C(=O)N[C@@H](Cc2c[nH]c3ccccc23)C(=O)N[C@@H](Cc2ccc(O)cc2)C(=O)N[C@@H](CCCCN)C(=O)N[C@H](C(=O)NCC(N)=O)CSCC(=O)N[C@@H](Cc2cc(F)c(F)c(F)c2)C(=O)N(C)[C@@H](Cc2ccccc2)C(=O)N1C [Example 9345] ({CH2CO}-[Phe(3,4,5-F3)][NMeF][NMeNle][d(cisHyp)]DV[NMeF]D[d(cisHyp)]WYKCG-NH2; thioether N-13)
1 to 9.9 | CCCC[C@H]1C(=O)N2C[C@H](O)C[C@@H]2C(=O)N[C@@H](CC(=O)O)C(=O)N[C@@H](C(C)C)C(=O)N(C)[C@@H](Cc2ccccc2)C(=O)N[C@@H](CC(=O)O)C(=O)N2C[C@H](O)C[C@@H]2C(=O)N[C@@H](Cc2c[nH]c3ccccc23)C(=O)N[C@@H](Cc2ccc(O)cc2)C(=O)N[C@@H](CCCN)C(=O)N[C@H](C(=O)NCC(N)=O)CSCC(=O)N[C@@H](Cc2cc(F)c(F)c(F)c2)C(=O)N(C)[C@@H](Cc2ccccc2)C(=O)N1C [Example 9346] ({CH2CO}-[Phe(3,4,5-F3)][NMeF][NMeNle][d(cisHyp)]DV[NMeF]D[d(cisHyp)]WY[Orn]CG-NH2; thioether N-13)
10 to 99.9 | CCCC[C@H]1C(=O)N2C[C@H](O)C[C@@H]2C(=O)N[C@@H](CC(=O)O)C(=O)N[C@@H](C(C)C)C(=O)N(C)[C@@H](Cc2ccccc2)C(=O)N[C@@H](CC(=O)O)C(=O)N2C[C@H](O)C[C@@H]2C(=O)N[C@@H](Cc2c[nH]c3ccccc23)C(=O)N[C@@H](Cc2ccc(O)cc2)C(=O)N[C@@H](CN)C(=O)N[C@H](C(=O)NCC(N)=O)CSCC(=O)N[C@@H](Cc2cc(F)c(F)c(F)c2)C(=O)N(C)[C@@H](Cc2ccccc2)C(=O)N1C [Example 9348] ({CH2CO}-[Phe(3,4,5-F3)][NMeF][NMeNle][d(cisHyp)]DV[NMeF]D[d(cisHyp)]WY[Dap]CG-NH2; thioether N-13)
10 to 99.9 | CCCC[C@H]1C(=O)N2C[C@H](O)C[C@@H]2C(=O)N[C@@H](CC(=O)O)C(=O)N[C@@H](C(C)C)C(=O)N(C)[C@@H](Cc2ccccc2)C(=O)N[C@@H](CC(=O)O)C(=O)N2C[C@H](O)C[C@@H]2C(=O)N[C@@H](Cc2c[nH]c3ccccc23)C(=O)N[C@@H](Cc2ccc(O)cc2)C(=O)N[C@@H](CCC(=O)O)C(=O)N[C@H](C(=O)NCC(N)=O)CSCC(=O)N[C@@H](Cc2cc(F)c(F)c(F)c2)C(=O)N(C)[C@@H](Cc2ccccc2)C(=O)N1C [Example 9349] ({CH2CO}-[Phe(3,4,5-F3)][NMeF][NMeNle][d(cisHyp)]DV[NMeF]D[d(cisHyp)]WYECG-NH2; thioether N-13)
10 to 99.9 | CCCC[C@H]1C(=O)N2C[C@H](O)C[C@@H]2C(=O)N[C@@H](CC(=O)O)C(=O)N[C@@H](C(C)C)C(=O)N(C)[C@@H](Cc2ccccc2)C(=O)N[C@@H](CC(=O)O)C(=O)N2C[C@H](O)C[C@@H]2C(=O)N[C@@H](Cc2c[nH]c3ccccc23)C(=O)N[C@@H](Cc2ccc(O)cc2)C(=O)N[C@@H](CC(=O)O)C(=O)N[C@H](C(=O)NCC(N)=O)CSCC(=O)N[C@@H](Cc2cc(F)c(F)c(F)c2)C(=O)N(C)[C@@H](Cc2ccccc2)C(=O)N1C [Example 9350] ({CH2CO}-[Phe(3,4,5-F3)][NMeF][NMeNle][d(cisHyp)]DV[NMeF]D[d(cisHyp)]WYDCG-NH2; thioether N-13)
10 to 99.9 | CCCC[C@H]1C(=O)N2C[C@H](O)C[C@@H]2C(=O)N[C@@H](CC(=O)O)C(=O)N[C@@H](C(C)C)C(=O)N(C)[C@@H](Cc2ccccc2)C(=O)N[C@@H](CC(=O)O)C(=O)N2C[C@H](O)C[C@@H]2C(=O)N[C@@H](Cc2c[nH]c3ccccc23)C(=O)N[C@@H](Cc2ccc(O)cc2)C(=O)N[C@@H](CCC(N)=O)C(=O)N[C@H](C(=O)NCC(N)=O)CSCC(=O)N[C@@H](Cc2cc(F)c(F)c(F)c2)C(=O)N(C)[C@@H](Cc2ccccc2)C(=O)N1C [Example 9351] ({CH2CO}-[Phe(3,4,5-F3)][NMeF][NMeNle][d(cisHyp)]DV[NMeF]D[d(cisHyp)]WYQCG-NH2; thioether N-13)
1 to 9.9 | CCCC[C@H]1C(=O)N2C[C@H](O)C[C@@H]2C(=O)N[C@@H](CC(=O)O)C(=O)N[C@@H](C(C)C)C(=O)N(C)[C@@H](Cc2ccccc2)C(=O)N[C@@H](CC(=O)O)C(=O)N2C[C@H](O)C[C@@H]2C(=O)N[C@@H](Cc2c[nH]c3ccccc23)C(=O)N[C@@H](Cc2ccc(O)cc2)C(=O)N[C@@H](CC(N)=O)C(=O)N[C@H](C(=O)NCC(N)=O)CSCC(=O)N[C@@H](Cc2cc(F)c(F)c(F)c2)C(=O)N(C)[C@@H](Cc2ccccc2)C(=O)N1C [Example 9352] ({CH2CO}-[Phe(3,4,5-F3)][NMeF][NMeNle][d(cisHyp)]DV[NMeF]D[d(cisHyp)]WYNCG-NH2; thioether N-13)
1 to 9.9 | CCCC[C@H]1C(=O)N2C[C@H](O)C[C@@H]2C(=O)N[C@@H](CC(=O)O)C(=O)N[C@@H](C(C)C)C(=O)N(C)[C@@H](Cc2ccccc2)C(=O)N[C@@H](CCC(N)=O)C(=O)N2C[C@H](O)C[C@@H]2C(=O)N[C@@H](Cc2c[nH]c3ccccc23)C(=O)N[C@@H](Cc2ccc(O)cc2)C(=O)N[C@@H](CCCCN)C(=O)N[C@H](C(=O)NCC(N)=O)CSCC(=O)N[C@@H](Cc2cc(F)c(F)c(F)c2)C(=O)N(C)[C@@H](Cc2ccccc2)C(=O)N1C [Example 9353] ({CH2CO}-[Phe(3,4,5-F3)][NMeF][NMeNle][d(cisHyp)]DV[NMeF]Q[d(cisHyp)]WYKCG-NH2; thioether N-13)
1 to 9.9 | CCCC[C@H]1C(=O)N2C[C@H](O)C[C@@H]2C(=O)N[C@@H](CC(=O)O)C(=O)N[C@@H](C(C)C)C(=O)N(C)[C@@H](Cc2ccccc2)C(=O)N[C@@H](CCC(N)=O)C(=O)N2C[C@H](O)C[C@@H]2C(=O)N[C@@H](Cc2c[nH]c3ccccc23)C(=O)N[C@@H](Cc2ccc(O)cc2)C(=O)N[C@@H](CCCN)C(=O)N[C@H](C(=O)NCC(N)=O)CSCC(=O)N[C@@H](Cc2cc(F)c(F)c(F)c2)C(=O)N(C)[C@@H](Cc2ccccc2)C(=O)N1C [Example 9354] ({CH2CO}-[Phe(3,4,5-F3)][NMeF][NMeNle][d(cisHyp)]DV[NMeF]Q[d(cisHyp)]WY[Orn]CG-NH2; thioether N-13)
1 to 9.9 | CCCC[C@H]1C(=O)N2C[C@H](O)C[C@@H]2C(=O)N[C@@H](CC(=O)O)C(=O)N[C@@H](C(C)C)C(=O)N(C)[C@@H](Cc2ccccc2)C(=O)N[C@@H](CCC(N)=O)C(=O)N2C[C@H](O)C[C@@H]2C(=O)N[C@@H](Cc2c[nH]c3ccccc23)C(=O)N[C@@H](Cc2ccc(O)cc2)C(=O)N[C@@H](CCN)C(=O)N[C@H](C(=O)NCC(N)=O)CSCC(=O)N[C@@H](Cc2cc(F)c(F)c(F)c2)C(=O)N(C)[C@@H](Cc2ccccc2)C(=O)N1C [Example 9355] ({CH2CO}-[Phe(3,4,5-F3)][NMeF][NMeNle][d(cisHyp)]DV[NMeF]Q[d(cisHyp)]WY[Dab]CG-NH2; thioether N-13)

Same assay, conditions: PD-L1-His 10 nM, PD-1-Ig 20 nM; read-out: HTRF Human PD-L1/PD-1 Binding Assay IC50

IC50 [nM] | Compound
10.9 | CCCC[C@H]1C(=O)N2C[C@H](O)C[C@@H]2C(=O)N[C@@H](CC(=O)O)C(=O)N[C@@H](C(C)C)C(=O)N(C)[C@@H](Cc2ccccc2)C(=O)N[C@@H](CC(=O)O)C(=O)N2C[C@H](O)C[C@@H]2C(=O)N[C@@H](Cc2c[nH]c3ccccc23)C(=O)N[C@@H](Cc2ccc(O)cc2)C(=O)N[C@@H](CCN)C(=O)N[C@H](C(=O)NCC(N)=O)CSCC(=O)N[C@@H](Cc2cc(F)c(F)c(F)c2)C(=O)N(C)[C@@H](Cc2ccccc2)C(=O)N1C [Example 9347] ({CH2CO}-[Phe(3,4,5-F3)][NMeF][NMeNle][d(cisHyp)]DV[NMeF]D[d(cisHyp)]WY[Dab]CG-NH2; thioether N-13)
